Assay results from patent US20260176284A1, “Compounds with Anti-KRAS Mutated Tumor Activity” (Trasveda Ltd., priority 2022, published 2026).

What was measured:
[1] = test system: KRAS G12D mutated AGS human gastric adenocarcinoma cells; assay: Proliferation inhibition of KRAS G12D mutant AGS cells, another experiment with similar protocol (includes MRTX1133); assay type: cell-based; details: Homo sapiens
Protocol: In another experiment, using a protocol similar to the one described above, the inhibitory activity of some representative compounds of the present invention against KRAS G12D mutated AGS human gastric adenocarcinoma cells was determined.
The synthesis of compound MRTX1133 was performed according to the method described in J. Med. Chem. 2022, 65, 4, 3123-3133.

[2] = Mouse pharmacokinetics (IV and PO); assay type: in vivo; details: 10 mg/kg, male CD-1 mice, PO (gavage), 1 mg/mL at 10 mL/kg, plasma
Protocol: The pharmacokinetic properties of the compounds of the present invention were evaluated through a mouse pharmacokinetic experiment.
Male CD-1 mice, aged 6-8 weeks old, were purchased from Zhejiang Vital River Laboratory Animal Co., Ltd.
IV administration group: The compound was formulated into a sodium acetate buffer solution (10 mM sodium acetate solution, adjusted to pH 4.0 with acetic acid) containing 20% Captisol (sulfobutyl β-cyclodextrin) so that the final concentration of each compound was 0.6 mg/mL. The drug formulation was injected into the tail vein of CD-1 mice at an injection volume of 5 mL/kg. After administration, blood samples were collected from the submandibular vein or by other appropriate methods at 5 min, 15 min, 30 min, 1 h, 2 h, 4 h, 6 h, 8 h, and 24 h. The blood samples were centrifuged at a low temperature for 6 minutes, and the plasma was collected and stored at −80° C. for testing. The PO administration group formulated the compound into a solvent of 0.5% Tween 80+99.5% (0.5% MC (400 cp)) or 5% DMSO+95% (0.5% MC (400 cp)) so that the final concentration of each compound was 1 mg/mL. The drug formulation was administered to CD-1 mice by gavage at a volume of 10 mL/kg. After administration, blood samples were collected from the submandibular vein or by other appropriate methods at 15 min, 30 min, 1 h, 2 h, 4 h, 6 h, 8 h, and 24 h. The blood samples were centrifuged at a low temperature for 6 minutes, and the plasma was collected and stored at −80° C. for testing.
10 μL of the plasma sample was taken, and 200 μL of methanol containing an internal standard was added as a precipitating agent to precipitate plasma proteins and extract the compounds to be tested in the plasma. After centrifugation at a low temperature, 10 μL of the supernatant was injected, and the drug blood concentration was analyzed by LC-MS/MS. The pharmacokinetic parameters were calculated using Winnonlin based on the drug concentration data at different time points.

[3] = test system: human pancreatic cancer cells HPAC (carrying KRas G12D mutant protein); assay: In vivo pharmacodynamics, subcutaneous xenograft of human pancreatic cancer cells HPAC; details: NOD/SCID mice, 50 mpk, PO; for Tumor volume (mm3) (Day 20): BID × 21; for TGI (%): BID × 21, Day 20
Protocol: The following materials were used in this experiment: NOD/SCID mice, 6-8 weeks old, female, Jiangsu Ji Cai Yao Kang Biotechnology Co., Ltd.; HPAC cells (carrying KRas G12D mutant protein, ATCC); Captisol (Wuhan Fengyao Tonghui Chemical Products Co., Ltd., Cas #182410-00-0); Sodium acetate (aladdin); MC (sigma, 9004-67-5).
The experiment was carried out as follows: Female NOD/SCID mice aged 6-8 weeks were subcutaneously inoculated with 1-10^7 HPAC cells on the right posterior side of the back, with an inoculation volume of 0.1 mL. When the tumors grew to an average volume of 150 mm^3, the mice were randomly grouped for administration according to the tumor size and body weight. The day of administration was regarded as day 0. The administration was carried out once a day. The test compound was administered by tail vein injection or gavage, with 5 mice in each group at a dose of 10 mg/kg. The control group was administered with an equal volume of the solvent control by tail vein injection or gavage.
During the experiment, the tumor volume and body weight were measured twice a week. The formula for calculating the tumor volume was: Tumor volume (mm^3)=0.5×(tumor major axis×tumor minor axis^2). The average tumor inhibition rate TGI %=[(average tumor volume of the control group−average initial tumor volume of the control group)−(average tumor volume of the administration group−average initial tumor volume of the administration group)]/(average tumor volume of the control group−average initial tumor volume of the control group).

Row | Structure (SMILES) | IC50 [1] [nM] | AUC(0-inf) [2] [ng·h/mL] | AUC(0-t) [2] [ng·h/mL] | half-life [2] [h] | Tumor volume (mm3) (Day 20) [3] | TGI (%) [3] [%]
1 | C#Cc1c(F)ccc2cc(O)cc(-c3c(F)cc4c(N5CC6CCC(C5)N6)nc(OC[C@]5(C)CN(C)CC[C@@H]5C(F)F)nc4c3F)c12 (atropisomer, axis not shown; (Ra)) [Example 46-3, (Ra)-4-(4-((1R,5S)-3,8-diazabicyclo[3.2.1]octan-3-yl)-2-(((3S,4S)-4-(difluoromethyl)-1,3-dimethylpiperidin-3-yl)methoxy)-6,8-difluoroquinazolin-7-yl)-5-ethynyl-6-fluoronaphthalen-2-ol] | 7 | 414 | 384 | 10.8 | 135 | 102
2 | C#Cc1c(F)ccc2cc(O)cc(-c3c(F)cc4c(N5CC6CCC(C5)N6)nc(OC[C@]5(C)CN(C)CC/C5=C\F)nc4c3F)c12 (atropisomer, axis not shown; (Ra)) [Example 77, (Ra)-4-(4-((1R,5S)-3,8-diazabicyclo[3.2.1]octan-3-yl)-6,8-difluoro-2-(((S,E) 4-(fluoromethylene)-1,3-dimethylpiperidin-3-yl)methoxy)quinazolin-7-yl)-5-ethynyl-6-fluoronaphthalen-2-ol] | 4 |  |  |  | 255 | 83
3 | C#Cc1c(F)ccc2cc(O)cc(-c3ncc4c(N5C[C@H]6CC[C@@H](C5)N6)nc(OC[C@]5(C)CN(C)CC[C@@H]5C(F)F)nc4c3F)c12 [Example 105, 4-(4-((1R,5S)-3,8-diazabicyclo[3.2.1]octan-3-yl)-2-(((3S,4S)-4-(difluoromethyl)-1,3-dimethylpiperidin-3-yl)methoxy)-8-fluoropyrido[4,3-d]pyrimidin-7-yl)-5-ethynyl-6-fluoronaphthalen-2-ol] | 6 |  |  |  | 122 | 104
4 | C#Cc1c(F)ccc2cc(O)cc(-c3nc(OC)c4c(N5C[C@H]6CC[C@@H](C5)N6)nc(OC[C@]5(C)CN(C)CC[C@@H]5C(F)F)nc4c3F)c12 [Example 261, 4-(4-((1R,5S)-3,8-diazabicyclo[3.2.1]octan-3-yl)-2-(((3S,4S)-4-(difluoromethyl)-1,3-dimethylpiperidin-3-yl)methoxy)-8-fluoro-5-methoxypyrido[4,3-d]pyrimidin-7-yl)-5-ethynyl-6-fluoronaphthalen-2-ol] | 2 |  |  |  | 117 | 105
5 | C#Cc1c(F)ccc2cc(O)cc(-c3nc(OC)c4c(N5C[C@H]6CC[C@@H](C5)N6)nc(OC[C@]5(C)CN(C)CC/C5=C\F)nc4c3F)c12 [Example 265, 4-(4-((1R,5S)-3,8-diazabicyclo[3.2.1]octan-3-yl)-8-fluoro-2-(((S,E)-4-(fluoromethylene)-1,3-dimethylpiperidin-3-yl)methoxy)-5-methoxypyrido[4,3-d]pyrimidin-7-yl)-5-ethynyl-6-fluoronaphthalen-2-ol] | 2 |  |  |  | 113 | 106
6 | [2H]C([2H])([2H])N1CC/C(=C\F)[C@](C)(C([2H])([2H])Oc2nc(N3C[C@H]4CC[C@@H](C3)N4)c3cnc(-c4cc(O)cc5ccc(F)c(C#C)c45)c(F)c3n2)C1 [Example 304, 4-(4-((1R,5S)-3,8-diazabicyclo[3.2.1]octan-3-yl)-8-fluoro-2-(((S,E)-4-(fluoromethylene)-3-methyl-1-(methyl-d3)piperidin-3-yl)methoxy-d2)pyrido[4,3-d]pyrimidin-7-yl)-5-ethynyl-6-fluoronaphthalen-2-ol] | 2 | 1500 | 1420 | 8.74 |  | 
7 | [2H]C([2H])([2H])N1CC/C(=C\F)[C@](C)(COc2nc(N3C[C@H]4CC[C@@H](C3)N4)c3cnc(-c4cc(O)cc5ccc(F)c(C#C)c45)c(F)c3n2)C1 [Example 306, 4-(4-((1R,5S)-3,8-diazabicyclo[3.2.1]octan-3-yl)-8-fluoro-2-(((S,E)-4-(fluoromethylene)-3-methyl-1-(methyl-d3)piperidin-3-yl)methoxy)pyrido[4,3-d]pyrimidin-7-yl)-5-ethynyl-6-fluoronaphthalen-2-ol] | 5 | 801 | 759 | 7.17 |  | 
